Source: patent US9884063B2, “Amido-substituted azole compounds” (Bayer Pharma Aktiengesellschaft, priority 2014, dated 2018)

Legend:
[1] = target: T1, TNKS2 (Homo sapiens, UniProt Q9H2K2); experiment: Modified TNKS2 Assay 2 (auto-parsylation, [3H]-NAD+ SPA); assay type: biochemical; details: 6 nM TNKS2, 96 well
T1 sequence (Q9H2K2 1-1166): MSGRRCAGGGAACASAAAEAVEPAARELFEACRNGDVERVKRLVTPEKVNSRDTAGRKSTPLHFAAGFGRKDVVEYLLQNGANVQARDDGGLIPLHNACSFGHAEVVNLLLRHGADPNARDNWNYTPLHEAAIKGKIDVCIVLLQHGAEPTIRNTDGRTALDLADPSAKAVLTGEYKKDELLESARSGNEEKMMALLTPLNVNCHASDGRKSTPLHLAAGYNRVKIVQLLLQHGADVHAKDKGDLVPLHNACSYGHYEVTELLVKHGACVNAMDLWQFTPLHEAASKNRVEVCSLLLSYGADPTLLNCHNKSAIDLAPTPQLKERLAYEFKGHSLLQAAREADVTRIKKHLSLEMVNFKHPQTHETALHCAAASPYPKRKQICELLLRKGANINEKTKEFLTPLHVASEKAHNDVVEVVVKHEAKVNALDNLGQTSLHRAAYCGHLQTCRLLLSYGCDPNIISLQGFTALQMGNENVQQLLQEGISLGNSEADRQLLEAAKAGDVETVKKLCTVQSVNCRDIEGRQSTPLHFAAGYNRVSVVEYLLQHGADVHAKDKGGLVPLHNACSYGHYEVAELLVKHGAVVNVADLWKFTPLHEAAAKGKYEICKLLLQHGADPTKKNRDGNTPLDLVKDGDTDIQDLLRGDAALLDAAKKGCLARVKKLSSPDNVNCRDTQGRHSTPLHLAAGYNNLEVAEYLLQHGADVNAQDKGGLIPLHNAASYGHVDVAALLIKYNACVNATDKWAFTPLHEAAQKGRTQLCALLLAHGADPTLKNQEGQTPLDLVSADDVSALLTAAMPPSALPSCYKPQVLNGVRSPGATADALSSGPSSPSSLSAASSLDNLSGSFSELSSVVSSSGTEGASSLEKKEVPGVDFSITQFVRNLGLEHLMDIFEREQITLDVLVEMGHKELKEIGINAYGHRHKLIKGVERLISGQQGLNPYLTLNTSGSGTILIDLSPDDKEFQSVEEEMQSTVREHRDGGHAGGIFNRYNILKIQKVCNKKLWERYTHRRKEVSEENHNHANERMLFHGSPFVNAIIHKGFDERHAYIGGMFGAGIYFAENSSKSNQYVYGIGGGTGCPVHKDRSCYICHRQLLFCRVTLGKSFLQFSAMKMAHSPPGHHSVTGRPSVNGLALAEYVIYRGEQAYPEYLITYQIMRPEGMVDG

[2] = system: wildtype Wnt signaling cascade; experiment: HEK293 TOP Assay (Super TopFlash luciferase reporter, Wnt-3a stimulated); assay type: cell-based; details: Homo sapiens, HEK293, 16 h, HEK293 TOP reporter cell line, Wnt-3a at EC50, 16 hours incubation, compound dilution series 50 μM to 15 nM
Method in brief: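 HEK293 cells stably carrying Super TopFlash (TOP) or FOP reporter, stimulated with recombinant human Wnt-3a (2500–5 ng/ml, two-fold steps). Both lines incubated in parallel with compound from 50 μM to 15 nM (3.16-fold) in CAFTY buffer pH 7.4 with 2 mM Ca2+ and 0.01% BSA; selectivity judged TOP vs FOP.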

[3] = system: HEK293 FOP control reporter cell line; experiment: HEK293 FOP Assay (FOP control vector luciferase reporter); assay type: cell-based; details: Homo sapiens; HEK293 FOP control reporter cell line, 16 hours incubation, compound dilution series 50 μM to 15 nM
Method in brief: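 Stable HEK293 line carrying the FOP vector (randomized, non-functional TCF sites; Geneticin-selected) was run in parallel with the TOP line. Cells were plated 24 h ahead at 10000/well and given recombinant human Wnt-3a at 2500–5 ng/ml. Compounds were tested at 50 μM–15 nM (3.16-fold steps) in CAFTY buffer, pH 7.4, with 2 mM Ca2+ and 0.01% BSA.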

Compound | IC50 [1] [nM] | IC50 [2] [nM] | IC50 [3] [nM]
CNC(=O)c1nc[nH]c1C(=O)Nc1ccc(NC(=O)c2cc(OCCN3CCCCC3)ccc2Cl)cc1 [Example 125, N^5-[4-({2-chloro-5-[2-(piperidin-1-yl)ethoxy]benzoyl}amino)phenyl]-N^4-methyl-1H-imidazole-4,5-dicarboxamide] | > 10000 | 4100 | 15000
CC(C)(C)CNC(=O)c1[nH]cnc1C(=O)Nc1ccc(NC(=O)c2ccccc2Cl)cc1 [Example 148, N^4-{4-[(2-chlorobenzoyl)amino]phenyl}-N^5-(2,2-dimethylpropyl)-1H-imidazole-4,5-dicarboxamide] | 1100 | 1750 | 16000
CC(C)(CN1CCCCC1)NC(=O)c1[nH]cnc1C(=O)Nc1ccc(NC(=O)c2ccccc2Cl)cc1 [Example 171, N^4-{4-[(2-chlorobenzoyl)amino]phenyl}-N^5-[2-methyl-1-(piperidin-1-yl)propan-2-yl]-1H-imidazole-4,5-dicarboxamide] | 340 | 670 | 6500
CC(C)(CN1CCOCC1)NC(=O)c1[nH]cnc1C(=O)Nc1ccc(NC(=O)c2ccc(F)cc2)cc1 [Example 180, N^4-{4-[(4-fluorobenzoyl)amino]phenyl}-N^5-[2-methyl-1-(morpholin-4-yl)propan-2-yl]-1H-imidazole-4,5-dicarboxamide] | 6900 | 5350 | 37000
O=C(Nc1ccc(NC(=O)c2nc[nH]c2C(=O)NCCCCN2CCCCC2)cc1)c1ccccc1Cl [Example 189, N^4-{4-[(2-chlorobenzoyl)amino]phenyl}-N^5-[4-(piperidin-1-yl)butyl]-1H-imidazole-4,5-dicarboxamide] | 260 | 890 | 28000
O=C(Nc1ccc(NC(=O)c2nc[nH]c2C(=O)NCCCN2CCOCC2)cc1)c1ccccc1Cl [Example 200, N^4-{4-[(2-chlorobenzoyl)amino]phenyl}-N^5-[3-(morpholin-4-yl)propyl]-1H-imidazole-4,5-dicarboxamide] | 580 | 870 | 20000
CC(C)(CNC(=O)c1[nH]cnc1C(=O)Nc1ccc(NC(=O)c2ccc(F)cc2)cc1)N1CCCCC1 [Example 209, N^4-{4-[(4-fluorobenzoyl)amino]phenyl}-N^5-[2-methyl-2-(piperidin-1-yl)propyl]-1H-imidazole-4,5-dicarboxamide] | 460 | 850 | 22000
CNC(=O)c1nc[nH]c1C(=O)Nc1ccc(NC(=O)c2ncccc2Cl)cc1 [Example 247, N^5-(4-{[(3-chloropyridin-2-yl)carbonyl]amino}phenyl)-N^4-methyl-1H-imidazole-4,5-dicarboxamide] | 570 | 400 | 35000
CCNC(=O)c1nc[nH]c1C(=O)Nc1ccc(NC(=O)c2ccc(OCC)cc2Cl)cc1 [Example 259, N^5-{4-[(2-chloro-4-ethoxybenzoyl)amino]phenyl}-N^4-ethyl-1H-imidazole-4,5-dicarboxamide] | 7600 | 880 | 33000

Stronger by IC50 [1], values ahead:

IC50 [1] [nM] | IC50 [2] [nM] | Compound | IC50 [3] [nM]
5 | 70 | O=C(NCCN1CCCCC1)c1nc[nH]c1C(=O)Nc1ccc(NC(=O)c2c(F)cc(F)cc2Cl)cc1 [Example 119, N^5-{4-[(2-chloro-4,6-difluorobenzoyl)amino]phenyl}-N^4-[2-(piperidin-1-yl)ethyl]-1H-imidazole-4,5-dicarboxamide] | 20000
7 | 40 | CC1CCN(CCNC(=O)c2nc[nH]c2C(=O)Nc2ccc(NC(=O)c3ccc(F)cc3Cl)cc2)CC1 [Example 126, N^5-{4-[(2-chloro-4-fluorobenzoyl)amino]phenyl}-N^4-[2-(4-methylpiperidin-1-yl)ethyl]-1H-imidazole-4,5-dicarboxamide] | 27000
110 | 320 | CC(C)CNC(=O)c1[nH]cnc1C(=O)Nc1ccc(NC(=O)c2ccc(F)cc2Cl)cc1 [Example 147, N^4-{4-[(2-chloro-4-fluorobenzoyl)amino]phenyl}-N^5-isobutyl-1H-imidazole-4,5-dicarboxamide] | 6000
70 | 290 | CC(C)(CNC(=O)c1[nH]cnc1C(=O)Nc1ccc(NC(=O)c2ccccc2Cl)cc1)N1CCCCC1 [Example 165, N^4-{4-[(2-chlorobenzoyl)amino]phenyl}-N^5-[2-methyl-2-(piperidin-1-yl)propyl]-1H-imidazole-4,5-dicarboxamide] | 31000
100 | 350 | CN1CCN(C(C)(C)CNC(=O)c2[nH]cnc2C(=O)Nc2ccc(NC(=O)c3ccc(F)cc3Cl)cc2)CC1 [Example 187, N^4-{4-[(2-chloro-4-fluorobenzoyl)amino]phenyl}-N^5-[2-methyl-2-(4-methylpiperazin-1-yl)propyl]-1H-imidazole-4,5-dicarboxamide] | 28000
2 | 30 | CC1CCCN(CCNC(=O)c2[nH]cnc2C(=O)Nc2ccc(NC(=O)c3ccc(F)cc3Cl)cc2)C1 (stereo not drawn) [Example 208, N^4-{4-[(2-chloro-4-fluorobenzoyl)amino]phenyl}-N^5-[2-(3-methylpiperidin-1-yl)ethyl]-1H-imidazole-4,5-dicarboxamide] | 23000
2 | 20 | O=C(Nc1ccc(NC(=O)c2nc[nH]c2C(=O)NCCN2CCCCC2)cc1)c1ccc(F)cc1Br [Example 216, N^4-{4-[(2-bromo-4-fluorobenzoyl)amino]phenyl}-N^5-[2-(piperidin-1-yl)ethyl]-1H-imidazole-4,5-dicarboxamide] | 11000
110 | 1610 | O=C(Nc1ccc(NC(=O)c2ocnc2C(=O)NCCN2CCC(F)(F)CC2)cc1)c1ccc(F)cc1Cl [Example 218, N^5-{4-[(2-chloro-4-fluorobenzoyl)amino]phenyl}-N^4-[2-(4,4-difluoropiperidin-1-yl)ethyl]-1,3-oxazole-4,5-dicarboxamide] | 31500
60 | 420 | O=C(Nc1ccc(NC(=O)c2nc[nH]c2C(=O)NC2CCOC2)cc1)c1ccc(F)cc1Cl (stereo not drawn) [Example 236, N^4-{4-[(2-chloro-4-fluorobenzoyl)amino]phenyl}-N^5-(tetrahydrofuran-3-yl)-1H-imidazole-4,5-dicarboxamide] | 34000
